Drawing on US11345666B2, “Phenyl and pyridinyl substituted imidazoles as modulators of RORγT” (Janssen Pharmaceutica NV, priority 2018, dated 2022), this text covers inhibition, IC50 and Kd for 14 molecules.

Read-outs that look alike come from different tables or passages of the source.

One assay addresses full-length human RORγt (Homo sapiens (Human), UniProt P51449). Kind of assay: RORγt (full-length human) reporter assay, conditions A or B. The class given is cell-based. The conditions noted are these: for IC50: HEK293T cells, read-out: RORγt (FL) Reporter Assay A or B, IC50; for inhibition at 6 µM: read-out: RORγt (FL) Reporter Assay A or B, % inhibition @ 6 μM, 6 μM compound concentration; for inhibition at 0.67 µM: 0.67 μM compound concentration (****). An outline of the steps:
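HEK293T cells transiently co-transfected (PEI) with GAL4-DBD–RORγt, GAL4-firefly luciferase and CMV-Renilla reporters; condition A 35,000 cells/well, 170.5 ng DNA/well; condition B 8750 cells/well, 42.6 ng DNA/well.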

For assay [1], the target named is human RORγt ligand binding domain (RORγt LBD) (Homo sapiens (Human), UniProt P51449). Kind of assay: RORγt ThermoFluor assay. An outline of the steps:
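Thermal shift of His-tagged human RORγt LBD (0.065 mg/mL) with 60 μM 1,8-ANS in 100 mM Hepes pH 7.0, 10 mM NaCl, 2.5 mM GSH, 0.002% Tween-20, heated at 1° C./min. Compounds in 1:2 series from a 10 mM DMSO stock; KD estimated from ΔTm using protein unfolding thermodynamics.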

Where [2] appears, read: 3 μM compound concentration (*), read-out: RORγt (FL) Reporter Assay A or B, % inhibition.
The mark [3] stands for this setting: read-out: RORγt (FL) Reporter Assay A or B, % inhibition.
Where [4] appears, read: 2 μM compound concentration (**), read-out: RORγt (FL) Reporter Assay A or B, % inhibition.

Chain of human RORγt ligand binding domain (RORγt LBD) (P51449 other isoform, or with tags, fused parts or gaps): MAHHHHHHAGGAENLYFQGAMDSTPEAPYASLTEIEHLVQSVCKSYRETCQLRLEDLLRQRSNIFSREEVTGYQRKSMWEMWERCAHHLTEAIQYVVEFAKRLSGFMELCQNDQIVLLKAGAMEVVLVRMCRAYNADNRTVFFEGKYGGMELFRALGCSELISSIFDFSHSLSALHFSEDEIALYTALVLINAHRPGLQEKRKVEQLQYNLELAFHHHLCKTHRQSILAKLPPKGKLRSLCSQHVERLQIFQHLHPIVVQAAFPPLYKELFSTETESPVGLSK
Chain of full-length human RORγt (P51449 other isoform, or with tags, fused parts or gaps): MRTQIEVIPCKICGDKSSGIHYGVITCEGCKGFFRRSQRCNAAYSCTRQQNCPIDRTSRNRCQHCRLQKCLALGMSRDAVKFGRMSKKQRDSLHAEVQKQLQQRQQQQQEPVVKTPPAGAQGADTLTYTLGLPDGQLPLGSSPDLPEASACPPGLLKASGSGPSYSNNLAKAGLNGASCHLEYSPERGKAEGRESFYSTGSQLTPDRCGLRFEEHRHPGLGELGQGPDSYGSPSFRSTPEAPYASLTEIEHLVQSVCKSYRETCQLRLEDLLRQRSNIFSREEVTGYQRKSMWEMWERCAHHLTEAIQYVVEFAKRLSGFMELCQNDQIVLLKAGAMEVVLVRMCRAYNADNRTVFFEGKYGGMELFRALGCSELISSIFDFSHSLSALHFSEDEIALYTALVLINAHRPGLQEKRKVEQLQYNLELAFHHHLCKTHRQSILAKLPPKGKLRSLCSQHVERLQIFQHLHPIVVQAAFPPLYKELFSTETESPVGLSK

Regarding `CCc1nc(C(=O)NC[C@H]2CC[C@H](S(N)(=O)=O)CC2)c(Cl)n1-c1ncc(CC(C)(C)C(F)(F)F)cc1OC(F)F` [Example 69, 5-Chloro-1-(3-(difluoromethoxy)-5-(3,3,3-trifluoro-2,2-dimethylpropyl)pyridin-2-yl)-2-ethyl-N-(((1r,4r)-4-sulfamoylcyclohexyl)methyl)-1H-imidazole-4-carboxamide], the inhibition at 3 µM on full-length human RORγt (setting [2]) came to 102%. For the same molecule, the IC50 – broadly, the concentration that inhibits the measured activity by half – at full-length human RORγt worked out at 39 nM. In addition, in assay [1], binding was characterised by a dissociation constant (Kd) of 7.2 nM.

Consider `CCc1nc(C(=O)NC[C@]2(O)CC[C@@H](S(C)(=O)=O)CC2)c(Cl)n1-c1ccc(CC(C)C)cc1OC` (single isomer, unassigned) [Example 91, 5-Chloro-2-ethyl-N-(((1s,4S)-1-hydroxy-4-(methylsulfonyl)cyclohexyl)methyl)-1-((S*)-4-isobutyl-2-methoxyphenyl)-1H-imidazole-4-carboxamide], for which, at full-length human RORγt, the IC50 was 360 nM. At full-length human RORγt (read-out: RORγt (FL) Reporter Assay A or B, % inhibition, 2 μM compound concentration (**)), the inhibition at 2 µM was determined as 42%. Further, the affinity in assay [1], expressed as Kd, was 620 nM.

In the case of `CCc1nc(C(=O)NC[C@]2(O)CC[C@@H](S(C)(=O)=O)CC2)c(F)n1-c1ccc(CC(C)(C)C(F)(F)F)cc1OC(F)F` [Example 35, 1-(2-(Difluoromethoxy)-4-(3,3,3-trifluoro-2,2-dimethylpropyl)phenyl)-2-ethyl-5-fluoro-N-(((1s,4s)-1-hydroxy-4-(methylsulfonyl)cyclohexyl)methyl)-1H-imidazole-4-carboxamide], on full-length human RORγt, the IC50 came to 28 nM and the inhibition at 6 µM came to 97%. Further, the Kd – broadly, the constant that tells how readily two partners part at equilibrium – in assay [1] was found to be 11 nM.

Turning to `CCc1nc(C(=O)NC[C@H]2CC[C@H](S(C)(=O)=O)CC2)c(C)n1-c1ncc(CC(C)(C)C(F)(F)F)cc1OC` [Example 126, 2-Ethyl-1-(3-methoxy-5-(3,3,3-trifluoro-2,2-dimethylpropyl)pyridin-2-yl)-5-methyl-N-(((1r,4r)-4-(methylsulfonyl)cyclohexyl)methyl)-1H-imidazole-4-carboxamide], at full-length human RORγt, the half-maximal inhibitory concentration (IC50) turned out to be 76 nM and the inhibition at 6 µM stood at 100%. The molecule also came in with a dissociation constant (Kd) in assay [1] of 8.6 nM.

Take `CCc1nc(C(=O)NC[C@]2(O)CC[C@@H](S(C)(=O)=O)CC2)c(Cl)n1-c1c(F)cc(CC(C)C(F)(F)F)cc1F` (stereo partly drawn) [Example 88, 5-Chloro-1-(2,6-difluoro-4-(3,3,3-trifluoro-2-methylpropyl)phenyl)-2-ethyl-N-(((1s,4s)-1-hydroxy-4-(methylsulfonyl)cyclohexyl)methyl)-1H-imidazole-4-carboxamide]: the inhibition at 0.67 µM on full-length human RORγt (setting [3]) came to 67%. For the same molecule, the IC50 at full-length human RORγt amounted to 46 nM. Besides, the affinity in assay [1], expressed as Kd, was 17 nM.

`CCc1nc(C(=O)NC[C@]2(O)CC[C@@H](S(C)(=O)=O)CC2)c(C#N)n1-c1ccc(CCC(F)(F)F)cc1OC(F)F` [Example 25, 5-Cyano-1-(2-(difluoromethoxy)-4-(3,3,3-trifluoropropyl)phenyl)-2-ethyl-N-(((1s,4s)-1-hydroxy-4-(methylsulfonyl)cyclohexyl)methyl)-1H-imidazole-4-carboxamide]: on full-length human RORγt, the IC50 turned out to be 370 nM and the inhibition at 6 µM was 101%. For the same molecule, the affinity in assay [1], expressed as Kd, was 84 nM.

For `CCc1nc(C(=O)NC[C@H]2CC[C@H](S(C)(=O)=O)CC2)c(C#N)n1-c1ncc(CC(C)(C)C(F)(F)F)cc1OC` [Example 122, 5-Cyano-2-ethyl-1-(3-methoxy-5-(3,3,3-trifluoro-2,2-dimethylpropyl)pyridin-2-yl)-N-(((1r,4r)-4-(methylsulfonyl)cyclohexyl)methyl)-1H-imidazole-4-carboxamide], the inhibition at 2 µM on full-length human RORγt (setting [4]) stood at 101%. The IC50 on full-length human RORγt came out at 48 nM. The Kd in assay [1] was determined as 12 nM.

For the molecule `CCc1nc(C(=O)NC[C@]2(O)CC[C@@H](S(C)(=O)=O)CC2)c(Cl)n1-c1ccc(CCCC(F)(F)F)cc1F` [Example 98, 5-Chloro-2-ethyl-1-(2-fluoro-4-(4,4,4-trifluorobutyl)phenyl)-N-(((1s,4s)-1-hydroxy-4-(methylsulfonyl)cyclohexyl)methyl)-1H-imidazole-4-carboxamide], on full-length human RORγt (setting [4]), the inhibition at 2 µM was determined as 43%. In addition, the half-maximal inhibitory concentration (IC50) on full-length human RORγt was 33 nM. The same molecule showed a Kd in assay [1] of 33 nM.

As for `COc1cc(CC(C)(C)C(F)(F)F)ccc1-n1cc(C(=O)NC[C@]2(O)CC[C@@H](S(C)(=O)=O)CC2)nc1C` [Example 130, N-(((1s,4s)-1-hydroxy-4-(methylsulfonyl)cyclohexyl)methyl)-1-(2-methoxy-4-(3,3,3-trifluoro-2,2-dimethylpropyl)phenyl)-2-methyl-1H-imidazole-4-carboxamide], at full-length human RORγt (setting [4]), the inhibition at 2 µM came to 73%. At full-length human RORγt, the half-maximal inhibitory concentration (IC50) was found to be 540 nM. Besides, in assay [1], the Kd came to 65 nM.

With `CCc1nc(C(=O)NC[C@]2(O)CC[C@@H](S(C)(=O)=O)CC2)c(Cl)n1-c1ccc(CC(C)(C)C(F)(F)F)cc1F` [Example 102, 5-Chloro-2-ethyl-1-(2-fluoro-4-(3,3,3-trifluoro-2,2-dimethylpropyl)phenyl)-N-(((1s,4s)-1-hydroxy-4-(methylsulfonyl)cyclohexyl)methyl)-1H-imidazole-4-carboxamide], on full-length human RORγt (setting [3]), the inhibition at 0.67 µM came out at 74%. Also, the IC50 at full-length human RORγt turned out to be 36 nM. In addition, in assay [1], the Kd is 8 nM.

In the case of `CCc1nc(C(=O)NC[C@H]2CC[C@H](S(C)(=O)=O)CC2)c(C)n1-c1ccc(CC(C(F)(F)F)C(F)(F)F)cc1F` [Example 110, 2-Ethyl-1-(2-fluoro-4-(3,3,3-trifluoro-2-(trifluoromethyl)propyl)phenyl)-5-methyl-N-(((r,4r)-4-(methylsulfonyl)cyclohexyl)methyl)-1H-imidazole-4-carboxamide], the inhibition at 0.07 µM on full-length human RORγt (0.07 μM compound concentration (*******), read-out: RORγt (FL) Reporter Assay A or B, % inhibition) was determined as 90%. Also, on full-length human RORγt, the IC50 amounted to 1.8 nM. Moreover, the Kd in assay [1] stood at 3.3 nM.

`CCc1nc(C(=O)NC[C@H]2CC[C@H](S(C)(=O)=O)CC2)c(F)n1-c1ccc(CC(C)(C)C(F)(F)F)cc1OC(F)F` [Example 34, 1-(2-(Difluoromethoxy)-4-(3,3,3-trifluoro-2,2-dimethylpropyl)phenyl)-2-ethyl-5-fluoro-N-(((1r,4r)-4-(methylsulfonyl)cyclohexyl)methyl)-1H-imidazole-4-carboxamide]: the inhibition at 2 µM on full-length human RORγt (setting [4]) came out at 98%. Further, at full-length human RORγt, the IC50 came out at 37 nM. In addition, binding in assay [1] was put at a Kd of 3.5 nM.

For the molecule `Cc1nc(C(=O)NC[C@@H]2CC[C@@H](S(C)(=O)=O)C[C@H]2O)c(C#N)n1-c1ccc(CC(C)(C)C(F)(F)F)cc1OC(F)F` (single isomer, unassigned) [Example 57, 5-Cyano-1-(2-(difluoromethoxy)-4-(3,3,3-trifluoro-2,2-dimethylpropyl)phenyl)-N-(((1S*,2R*,4R*)-2-hydroxy-4-(methylsulfonyl)cyclohexyl)methyl)-2-methyl-1H-imidazole-4-carboxamide], at full-length human RORγt, the IC50 was 40 nM. In addition, at full-length human RORγt (read-out: RORγt (FL) Reporter Assay A or B, % inhibition, 3 μM compound concentration (*)), the inhibition at 3 µM was 98%. This molecule also came in with a dissociation constant (Kd) in assay [1] of 22 nM.

In the case of `CCc1nc(C(=O)NC[C@H]2CC[C@H](S(C)(=O)=O)CC2)c(Cl)n1-c1ncc(CC(C(F)(F)F)C(F)(F)F)cc1OC(F)F` [Example 63, 5-Chloro-1-(3-(difluoromethoxy)-5-(3,3,3-trifluoro-2-(trifluoromethyl)propyl)pyridin-2-yl)-2-ethyl-N-(((1r,4r)-4-(methylsulfonyl)cyclohexyl)methyl)-1H-imidazole-4-carboxamide], the inhibition at 3 µM on full-length human RORγt (setting [2]) came to 95%. For the same molecule, on full-length human RORγt, the IC50 came to 47 nM. Besides, the Kd in assay [1] amounted to 7.3 nM.
